Measured values from publication doi:10.1101/2021.10.07.463234v2 (biorxiv, 2021).
Where a name gives a salt, the structure may show the parent alone.

Target: SARS-CoV-2 Mac1 (Severe acute respiratory syndrome coronavirus 2, UniProt P0DTD1)
Assay: biochemical
Conditions: 100 µM; inhibitor

Structure (SMILES) | %inhibition [%]
C[C@H]1COc2c(N3CCN(C)CC3)c(F)cc3c(=O)c(C(=O)O)cn1c23 [Levofloxacin hydrate] | 0
CN(C)C/C=C/C(=O)Nc1cc2c(Nc3ccc(F)c(Cl)c3)ncnc2cc1O[C@H]1CCOC1 [Afatinib (BIBW2992) Dimaleate] | 21
Nc1ncnc2c1ncn2[C@@H]1O[C@H](CO)[C@@H](O)[C@@H]1O [Vidarabine] | 17.83
O=c1sn(-c2cccc3ccccc23)c(=O)n1Cc1ccccc1 [Tideglusib] | 42.74
N=C(N)NCCN1CCCCCCC1 [Guanethidine Sulfate] | 0
COc1nc2ccc(Br)cc2cc1[C@@H](c1ccccc1)[C@@](O)(CCN(C)C)c1cccc2ccccc12 [Bedaquiline] | 4.292
Clc1ccc(CCC(Cn2ccnc2)Sc2c(Cl)cccc2Cl)cc1 (centres unmarked) [Butoconazole] | 13.63
CCOc1ccc(Cc2cc([C@@H]3O[C@H](CO)[C@@H](O)[C@H](O)[C@H]3O)ccc2Cl)cc1 [Dapagliflozin] | 1.439
CC(C)NCC(O)COc1ccc(CCOCC2CC2)cc1 (centres unmarked) [Betaxolol] | 0
N#CC[C@H](C1CCCC1)n1cc(-c2ncnc3[nH]ccc23)cn1 [Ruxolitinib (INCB018424)] | 0
COCCCOc1ccnc(C[S+]([O-])c2nc3ccccc3[nH]2)c1C (centres unmarked) [Rabeprazole] | 0.1163
CN(Cc1cnc2nc(N)nc(N)c2n1)c1ccc(C(=O)N[C@@H](CCC(=O)O)C(=O)O)cc1 [Methotrexate disodium] | 0
CC1=C(C(=O)O)N2C(=O)[C@@H](NC(=O)[C@H](N)C3=CCC=CC3)[C@H]2SC1 [Cefradine] | 0.656

Same assay, conditions: read-out: %inhibition

Structure (SMILES) | inhibition at 100 µM [%]
COc1ccc(C(=O)CC(=O)c2ccc(C(C)(C)C)cc2)cc1 [Avobenzone] | 26.5
O=C[C@H](O)[C@@H](O)[C@H](O)CO [Xylose] | 0
Cc1cc(O)c(C(=O)N[C@@H](C(=O)N[C@@H]2C(=O)N3C(C(=O)O)=C(CSc4nnnn4C)CS[C@H]23)c2ccc(O)cc2)cn1 [Cefpiramide sodium] | 0
Cn1ccnc1S [Methimazole] | 0
CN(C)C(=O)Oc1ccc[n+](C)c1 [Pyridostigmine Bromide] | 0
CO[C@H]1/C=C/O[C@@]2(C)Oc3c(C)c(O)c4c(O)c(c(/C=N/N5CCN(C)CC5)c(O)c4c3C2=O)NC(=O)/C(C)=C\C=C\[C@H](C)[C@H](O)[C@@H](C)[C@@H](O)[C@@H](C)[C@H](OC(C)=O)[C@@H]1C [Rifampin] | 31.3
COc1cnc(NS(=O)(=O)c2ccc(N)cc2)nc1 [Sulfameter] | 0
Cc1cc(N2CCN([C@@H]3CN[C@H](C(=O)N4CCSC4)C3)CC2)n(-c2ccccc2)n1 [Teneligliptin hydrobromide] | 6.56
Clc1ccccc1CN1CCc2sccc2C1 [Ticlopidine HCl] | 0.00536
CC(C)NC[C@@H](O)COc1ccc(CC(N)=O)cc1 [(R)-(+)-Atenolol HCl] | 9.19
COc1cc(NS(=O)(=O)c2ccc(N)cc2)nc(OC)n1 [Sulphadimethoxine] | 0
CCCCN1CCCC[C@H]1C(=O)Nc1c(C)cccc1C [Levobupivacaine HCl] | 0
C[C@@H](O)[C@H]1C(=O)N2C(C(=O)OCOC(=O)C(C)(C)C)=C(SC3CN(C4=NCCS4)C3)[C@H](C)[C@H]12 [Tebipenem Pivoxil] | 1.32
CC[C@H]1OC(=O)[C@H](C)[C@@H](O[C@H]2C[C@@](C)(OC)[C@@H](O)[C@H](C)O2)[C@H](C)[C@@H](O[C@@H]2O[C@H](C)C[C@H](N(C)C)[C@H]2O)[C@](C)(O)C[C@@H](C)[C@@H]2N[C@@H](COCCOC)O[C@H]([C@H]2C)[C@]1(C)O [Dirithromycin] | 28.8
C#CCC(Cc1cnc2nc(N)nc(N)c2n1)c1ccc(C(=O)N[C@@H](CCC(=O)O)C(=O)O)cc1 (some centres unmarked) [Pralatrexate] | 13.2
C[C@]12CC[C@H]3[C@@H](CC[C@@]45O[C@@H]4C(O)=C(C#N)C[C@]35C)[C@@H]1CC[C@@H]2O [Trilostane] | 0
CCOC(=O)[N-]c1c[n+](N2CCOCC2)no1 [Molsidomine] | 0
CC(C)Oc1ccc(-c2nc(-c3cccc4c3CC[C@@H]4NCCO)no2)cc1C#N [Ozanimod (RPC1063)] | 0
O=C(O)c1cc(/N=N/c2ccc(O)c(C(=O)O)c2)ccc1O [Olsalazine Sodium] | 11.8
CCOC(N)=O [Urethane] | 0
CC[C@@H]1C(=O)OC[C@@H]1Cc1cncn1C [Pilocarpine HCl] | 0
O=C(O)c1cc(=O)c2ccccc2o1 [Chromocarb] | 21.6

Structure (SMILES) | inhibition at 100 µM [%]
OCCN1CCN(CC/C=C2/c3ccccc3Sc3ccc(C(F)(F)F)cc32)CC1 [Flupenthixol dihydrochloride] | 12.3
CO[C@H]1C[C@@H]2CC[C@@H](C)[C@@](O)(O2)C(=O)C(=O)N2CCCC[C@H]2C(=O)O[C@H]([C@H](C)C[C@@H]2CC[C@@H](OCCO)[C@H](OC)C2)CC(=O)[C@H](C)/C=C(\C)[C@@H](O)[C@@H](OC)C(=O)[C@H](C)C[C@H](C)/C=C/C=C/C=C/1C [Everolimus (RAD001)] | 11.2
C=C[C@@H]1C[C@]1(NC(=O)[C@@H]1C[C@@H](Oc2ncc(OC)c3ccc(Cl)cc23)CN1C(=O)[C@@H](NC(=O)OC(C)(C)C)C(C)(C)C)C(=O)NS(=O)(=O)C1CC1 [Asunaprevir] | 0
CC(C(=O)O)c1cccc(Oc2ccccc2)c1 (centres unmarked) [Fenoprofen calcium hydrate] | 8.96
CC(C)(Oc1ccc(C(=O)c2ccc(Cl)cc2)cc1)C(=O)O [Fenofibric acid] | 0
CCCCCOc1ccccc1/C(=C\SC)n1ccnc1 [Neticonazole Hydrochloride] | 0
COc1cc(OC)c(C(=O)CCCN2CCCC2)c(OC)c1 [Buflomedil HCl] | 0
CC(C(=O)O)c1ccc(C(=O)c2ccccc2)s1 (centres unmarked) [Tiaprofenic acid] | 26.3
CCCSc1nc(N[C@@H]2C[C@H]2c2ccc(F)c(F)c2)c2nnn([C@@H]3C[C@H](OCCO)[C@@H](O)[C@H]3O)c2n1 [Ticagrelor] | 6.12
CC(=O)O[C@H]1C[C@@H]2CC[C@@H]3[C@H](CC[C@@]4(C)[C@H]3C[C@H]([N+]3(C)CCCCC3)[C@@H]4OC(C)=O)[C@@]2(C)C[C@@H]1[N+]1(C)CCCCC1 [Pancuronium dibromide] | 0
O=c1[nH]c(=O)n([C@H]2C[C@H](O)[C@@H](CO)O2)cc1C(F)(F)F [Trifluridine] | 0
N=C(N)Nc1ccc(C(=O)Oc2ccc3cc(C(=N)N)ccc3c2)cc1 [Nafamostat Mesylate] | 0
O=C(Nc1c(Cl)cncc1Cl)c1ccc(OC(F)F)c(OCC2CC2)c1 [Roflumilast] | 5.88
CC(C)(C)NCC(O)COc1cccc2c1C[C@H](O)[C@H](O)C2 (mixture of isomers) [Nadolol] | 21.5
CCN(CC)CCNC(=O)c1ccc(N)cc1 [Procainamide HCl] | 17.1
CN(C)CCC(c1ccc(Cl)cc1)c1ccccn1 (centres unmarked) [Chlorpheniramine Maleate] | 6.37
O=C(O)CCc1nc(-c2ccccc2)c(-c2ccccc2)o1 [Oxaprozin] | 11.8
O=C1CCC(N2C(=O)c3ccccc3C2=O)C(=O)N1 (centres unmarked) [Thalidomide] | 14
C[C@]12CC[C@@H]3c4ccc(O)cc4CC[C@H]3[C@@H]1CCC2=O [Estrone] | 0
CCCCC(CC)COC(=O)C=Cc1ccc(OC)cc1 (centres unmarked) [Octinoxate] | 0
CCOC(=O)[C@H]1O[C@@H]1C(=O)N[C@@H](CC(C)C)C(=O)NCCC(C)C [Aloxistatin] | 0
N=C(N)N [Guanidine HCl] | 14

Structure (SMILES) | inhibition at 100 µM [%]
CC(C)(C)NC[C@H](O)COc1nsnc1N1CCOCC1 [Timolol Maleate] | 11.9
CCc1nc(N)nc(N)c1-c1ccc(Cl)cc1 [Pyrimethamine] | 3.53
Oc1c(Cl)cc(Cl)cc1Sc1cc(Cl)cc(Cl)c1O [Bithionol] | 0
CC1(C)S[C@@H]2[C@H](NC(=O)[C@H](N)c3ccccc3)C(=O)N2[C@H]1C(=O)OCOC(=O)[C@@H]1N2C(=O)C[C@H]2S(=O)(=O)C1(C)C [Sultamicillin] | 8.63
C[C@]12C=CC(=O)C=C1CC[C@H]1[C@@H]3C[C@@H](O)[C@](O)(C(=O)CO)[C@@]3(C)C[C@H](O)[C@@]12F [Triamcinolone] | 16.5
CCOc1cc(CC(=O)N[C@@H](CC(C)C)c2ccccc2N2CCCCC2)ccc1C(=O)O [Repaglinide] | 0
CCOc1ccc(NC(=O)CC(C)O)cc1 (centres unmarked) [Bucetin] | 2.67
CCCCCCCCCCCC[N+](C)(C)CCOc1ccccc1 [Domiphen Bromide] | 0.79
O=C(NCCO[N+](=O)[O-])c1cccnc1 [Nicorandil] | 15.7
Cc1ncc(CO)c(CO)c1O [Pyridoxine] | 0
O=C(/C=C/c1cccc(S(=O)(=O)Nc2ccccc2)c1)NO [Belinostat (PXD101)] | 20
O=C1N=C(O)NC1(c1ccccc1)c1ccccc1 [Phenytoin Sodium] | 16
Cc1cnc(NC(=O)C2=C(O)c3ccccc3S(=O)(=O)N2C)s1 [Meloxicam] | 41.6
NC(CO)C(=O)NNCc1ccc(O)c(O)c1O (centres unmarked) [Benserazide HCl] | 7.42
CCCN(CCc1cccs1)[C@H]1CCc2c(O)cccc2C1 [Rotigotine] | 6.99
COc1ccc2cc(CCC(C)=O)ccc2c1 [Nabumetone] | 0
C[N+](C)(C)C[C@H](O)CC(=O)[O-] [L-carnitine] | 3.55
Cc1nnc(NS(=O)(=O)c2ccc(N)cc2)s1 [Sulfamethizole] | 15.9
O[C@H]1[C@H](O)[C@@H](O)[C@H](O)[C@@H](O)[C@H]1O [i-Inositol] | 0
Cc1[nH]c2ccccc2c1CCNCc1ccc(/C=C/C(=O)NO)cc1 [Panobinostat (LBH589)] | 7.31
